From patent US6313153A, “Compositions and methods for treating nephritis and inhibiting TGF -β related conditions using pyridylacrylamide derivatives” (Tsumura & Co., priority 1997, dated 2001)

Test system: anti-GBM nephritic mice
Assay: anti-GBM nephritic mice: proteinuria, serum cholesterol, blood urea nitrogen and serum creatinine;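 for Proteinuria 10th day: minus not effective plus trend double p<0.05 triple p<0.01 quadruple p<0.001 improvement vs control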;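 for Proteinuria 5th day: minus not effective plus trend double p<0.05 triple p<0.01 quadruple p<0.001 improvement vs control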;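 for Serum Parameter BUN (blood urea nitrogen): minus not effective plus trend double p<0.05 triple p<0.01 quadruple p<0.001 improvement vs control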;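 for Serum Parameter S-Ch (serum cholesterol): minus not effective plus trend double p<0.05 triple p<0.01 quadruple p<0.001 improvement vs control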
Assay type: in vivo, BALB/c mice
Conditions: for Total Evaluation: 3 × (number of + in proteinuria) + (number of + in serum parameter); for Proteinuria 5th day: 5th day from intravenous injection of anti-GBM serum; for Proteinuria 5th day / Proteinuria 10th day / Serum Parameter BUN (blood urea nitrogen) / Serum Parameter S-Ch (serum cholesterol) / Serum Parameter S-Cr (serum creatinine): oral; for Proteinuria 10th day: 10th day from intravenous injection of anti-GBM serum; for Serum Parameter BUN (blood urea nitrogen) / Serum Parameter S-Ch (serum cholesterol) / Serum Parameter S-Cr (serum creatinine): 11th day
Procedure: BALB/c mice (5 weeks old, purchased from Nippon Charles Liver) were quarantined and adapted for about 1 week before subjecting to experiments. These mice were divided into several groups for the experiments so that average body weights and standard deviations were almost identical in all groups. Mouse anti-GBM (glomerular basement membrane) nephritis was caused by immunizing the mice with rabbit γ-globulin (1 mg) with Freund's complete adjuvant and intravenously injecting rabbit anti-mouse GBM serum on the fifth day from the immunization. Each compound tested was forcedly orally administered via an oral sonde almost simultaneously with the intravenous injection of the anti-GBM serum. On the 5th and 10th days from the intravenous injection, urine was taken by a plastic metabolic cage and proteinuria was measured (Ohtsuka Tonein TP2). On the 11th day, blood was taken by cutting the carotid and serum cholesterol (S--Ch), blood urea nitrogen (BUN) and serum creatinine (S--Cr) were measured by Toshiba TBA-380 autoanalyzer.

| Structure (SMILES) | Total Evaluation | Proteinuria 5th day | Proteinuria 10th day | Serum Parameter BUN (blood urea nitrogen) | Serum Parameter S-Ch (serum cholesterol) | Serum Parameter S-Cr (serum creatinine) |
| --- | --- | --- | --- | --- | --- | --- |
| Cl.N#C/C(=C\c1cccnc1)C(=O)NCCc1ccc(O)cc1 [Compound 6, (E)-2-cyano-N-(4-hydroxyphenethyl)-3-(3-pyridyl)-2-propenoic acid amide hydrochloride] | 16 | ++ | +++ | - | + | - |
| N#C/C(=C\c1cccnc1)C(=O)NCCc1cccc(O)c1 [Compound 8] | 6 | - | ++ | - | - | - |
| COc1cc(CCN(C)C(=O)/C=C/c2cccnc2)cc(OC)c1OC.Cl [Compound 9, (E)-N-methyl-3-(3-pyridyl)-N-(3,4,5-trimethoxyphenethyl)-2-propenoic acid amide hydrochloride] | 12 | + | ++ | + | + | + |
| COc1cccc(CCN(C)C(=O)/C=C/c2cccnc2)c1OC [Compound 13] | 13 | + | +++ | + | - | + |
| COc1ccc(CCN(C)C(=O)/C=C/c2cccnc2)c(OC)c1 [Compound 14] | 7 | - | + | + | + | - |
| COc1ccc(OC)c(CCN(C)C(=O)/C=C/c2cccnc2)c1 [Compound 15] | 11 | + | + | + | + | + |
| COc1cc(CCN(C)C(=O)/C=C/c2cccnc2)cc(OC)c1 [Compound 18] | 13 | + | ++ | ++ | ++ | - |
| COc1ccc(CN(C)C(=O)/C=C/c2cccnc2)cc1OC [Compound 20] | 13 | ++ | + | + | + | ++ |
| CN(CCc1ccc(Cl)c(Cl)c1)C(=O)/C=C/c1cccnc1 [Compound 25] | 13 | + | ++ | + | +++ | + |
| O=C(/C=C/c1cccnc1)NCCc1ccccc1O [Compound 38] | 19 | ++ | +++ | + | ++ | + |
| COc1ccc(OC)c(CCNC(=O)/C=C/c2cccnc2)c1 [Compound 39] | 21 | ++ | +++ | ++ | ++ | ++ |
| COc1cccc(CCNC(=O)/C=C/c2cccnc2)c1 [Compound 41] | 8 | + | - | - | +++ | ++ |
| COc1cccc(CNC(=O)/C=C/c2cccnc2)c1 [Compound 42] | 9 | + | + | + | - | ++ |
| O=C(/C=C/c1cccnc1)NCc1ccc(O)cc1 [Compound 45] | 10 | ++ | + | - | + | - |
| COc1ccc(O)c(CCNC(=O)/C=C/c2cccnc2)c1 [Compound 50] | 18 | ++ | +++ | - | +++ | - |
| CN(CCc1ccc(-c2ccccc2)cc1)C(=O)/C=C/c1cccnc1 [Compound 52] | 10 | + | + | + | + | ++ |

| Structure (SMILES) | Total Evaluation | Proteinuria 5th day | Proteinuria 10th day | Serum Parameter BUN (blood urea nitrogen) | Serum Parameter S-Ch (serum cholesterol) | Serum Parameter S-Cr (serum creatinine) |
| --- | --- | --- | --- | --- | --- | --- |
| CSc1ccc(CCN(C)C(=O)/C=C/c2cccnc2)cc1 [Compound 53] | 6 | - | + | - | - | +++ |
| O=C(/C=C/c1cccnc1)NCCc1ccccc1O [Compound 70, (E)-N-(2-hydroxyphenethyl)-3-(3-pyridyl)-2-propenoic acid amide] | 22 | ++ | +++ | ++ | +++ | ++ |
| O=C(/C=C/c1cccnc1)NCCc1ccc(O)cc1 [Compound 71] | 17 | + | +++ | ++ | - | ++ |
| O=C(/C=C/c1cccnc1)NCCc1cccc(O)c1 [Compound 75] | 19 | ++ | +++ | + | ++ | + |
| CN(CCc1ccc(O)c(O)c1)C(=O)/C=C/c1cccnc1 [Compound 85, (E)-N-(3,4-dihydroxyphenethyl)-N-methyl-3-(3-pyridyl)-2-propenoic acid amide] | 21 | +++ | +++ | + | ++ | - |
| CN(CCc1ccc(O)cc1)C(=O)/C=C/c1cccnc1 [Compound 87] | 19 | +++ | + | +++ | ++ | ++ |
| O=C(/C=C/c1cccnc1)NCCc1cc(O)ccc1O [Compound 89] | 15 | ++ | ++ | + | ++ | - |
| O=C(/C=C/c1cccnc1)NCc1cccc(O)c1 [Compound 90] | 17 | ++ | +++ | + | - | + |
| O=C(/C=C/c1cccnc1)NCCc1ccc(O)c(O)c1 [Compound 91] | 14 | + | +++ | - | ++ | - |
| O=C(/C=C(/c1ccccc1)c1cccnc1)NCCc1cccc(O)c1 [Compound 93] | 8 | - | - | +++ | ++ | +++ |
| CCOC(=O)COc1ccc(CN(C)C(=O)/C=C/c2cccnc2)cc1 [Compound 95] | 9 | + | + | ++ | + | - |
| CCOC(=O)COc1cccc(CCNC(=O)/C=C/c2cccnc2)c1 [Compound 100] | 6 | - | + | + | + | + |
| CCOC(=O)COc1ccc(CCNC(=O)/C=C/c2cccnc2)cc1 [Compound 101] | 8 | - | ++ | - | - | ++ |
| COC(=O)COc1ccccc1CCNC(=O)/C=C/c1cccnc1 [Compound 102] | 9 | + | ++ | - | - | - |
| CNC(=O)COc1cccc(CCNC(=O)/C=C/c2cccnc2)c1 [Compound 114, (E)-N-[3-[(methyl-carbamoyl)methoxy]phenethyl]-3-(3-pyridyl)-2-propenoic acid amide] | 24 | +++ | +++ | ++ | +++ | + |
| NC(=O)COc1cccc(CCNC(=O)/C=C/c2cccnc2)c1 [Compound 115] | 10 | - | + | ++ | ++ | +++ |
